This is an account of results in PubChem BioAssay (NCI).

Test systems include SNB-19 CNS; OVCAR-5 ovarian; HOP-62 NSCLC; MDA-MB-231 breast; SR leukemia; UO-31 renal; EKVX NSCLC; MDA-MB-435; SF-539 CNS; ACHN renal; RXF 393 renal; RPMI-8226 leukemia; MDA-N; MCF7 breast; CCRF-CEM leukemia; NCI-H460 lung; OVCAR-4 ovarian; HCT-116 colon; OVCAR-3 ovarian; SK-OV-3 ovarian.
Assay in all cases: NCI-60 cell line screen, 48 h

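In this assay, cells in 96-well plates receive the compound at five concentrations for 48 hours. Endpoints are linearly interpolated between the surrounding concentrations. TGI: concentration producing complete growth inhibition.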 Bounds are passed on as bounds.

Regarding `OCc1cc2c(ccc3sc4ccc5sc6ccc7ncccc7c6c5c4c32)s1`, the TGI with SNB-19 CNS is 28.7 µM; in the assay with OVCAR-5 ovarian it was 33 µM; with HOP-62 NSCLC, 28.6 µM; in the assay with MDA-MB-231 breast, 18.2 µM; in the assay with SR leukemia, over 100 µM; in the assay with UO-31 renal, 7.25 µM. The TGI in the assay on EKVX NSCLC is 29.7 µM; in the assay on MDA-MB-435 it was over 100 µM; in the assay with SF-539 CNS, 32.4 µM; in the assay on ACHN renal, over 100 µM; in the assay on RXF 393 renal, 28.9 µM; in the assay on RPMI-8226 leukemia it was 96.2 µM. Further, the TGI was 23.9 µM in the assay with MDA-N; 42.2 µM with MCF7 breast; over 100 µM in the assay on CCRF-CEM leukemia; 26.3 µM with NCI-H460 lung; 89.2 µM in the assay with OVCAR-4 ovarian; 23 µM in the assay with HCT-116 colon. The figures for the TGI in the assay on OVCAR-3 ovarian and in the assay with SK-OV-3 ovarian were over 100 µM and 39.9 µM, respectively.

For `CC1=NN(c2nc(N)nc(CBr)n2)C(C)(C)C1`, the TGI with SNB-19 CNS came out at 36.6 µM; in the assay with OVCAR-5 ovarian, 13.8 µM; in the assay with HOP-62 NSCLC, 35.1 µM; in the assay with MDA-MB-231 breast, 19.8 µM; with SR leukemia, 17.1 µM; in the assay with UO-31 renal it was 1.61 µM. Further, the TGI was 15 µM in the assay with EKVX NSCLC; 27.8 µM in the assay with MDA-MB-435; 5.25 µM in the assay with SF-539 CNS; 13.9 µM in the assay on ACHN renal; 12 µM in the assay with RXF 393 renal; 5.61 µM in the assay with RPMI-8226 leukemia. In addition, the TGI was 25.5 µM with MDA-N; 11.3 µM in the assay on MCF7 breast; 0.983 µM with CCRF-CEM leukemia; 23.8 µM in the assay on NCI-H460 lung; 20.6 µM with OVCAR-4 ovarian; 17.4 µM in the assay on HCT-116 colon. Moreover, the TGI in the assay on OVCAR-3 ovarian worked out at 13.4 µM; with SK-OV-3 ovarian it was 38.7 µM.

Turning to `Cn1c(NNc2ccccc2)cc(=O)[nH]c1=O`, the TGI in the assay on SNB-19 CNS, in the assay on OVCAR-5 ovarian, with HOP-62 NSCLC, with MDA-MB-231 breast, with SR leukemia and in the assay with UO-31 renal was over 100 µM throughout. Also, the TGI with EKVX NSCLC was over 100 µM; with MDA-MB-435 it was 43.1 µM; with SF-539 CNS it was over 100 µM; with ACHN renal it was over 100 µM; in the assay on RXF 393 renal, over 100 µM; in the assay with RPMI-8226 leukemia, over 100 µM. For the same molecule, the TGI in the assay with MDA-N was 45.4 µM; in the assay with MCF7 breast it was over 100 µM; with CCRF-CEM leukemia, 53 µM; with NCI-H460 lung, over 100 µM; with OVCAR-4 ovarian, over 100 µM; in the assay with HCT-116 colon, over 100 µM. In addition, the TGI with OVCAR-3 ovarian was 61.6 µM; with SK-OV-3 ovarian it was over 100 µM.

For the molecule `C[Si](C)(C)C#Cc1cc(-c2nc3ccccc3s2)ccc1N`, the TGI with SNB-19 CNS is 34.6 µM; with OVCAR-5 ovarian, 33.5 µM; in the assay on HOP-62 NSCLC, 29.9 µM; in the assay on MDA-MB-231 breast, 38 µM; in the assay on SR leukemia it was 67.8 µM; with UO-31 renal it was 26.4 µM. Moreover, the TGI in the assay with EKVX NSCLC is 25.7 µM; in the assay on MDA-MB-435, 34.1 µM; in the assay with SF-539 CNS it was 34.5 µM; in the assay on ACHN renal it was 29.1 µM; in the assay on RXF 393 renal, 32.8 µM; in the assay on RPMI-8226 leukemia, 48.3 µM. For the same molecule, the TGI is 33.7 µM with MDA-N; 12 µM with MCF7 breast; 59.4 µM in the assay on CCRF-CEM leukemia; 31.1 µM with NCI-H460 lung; 29.8 µM in the assay on OVCAR-4 ovarian; 26.6 µM with HCT-116 colon. The TGI amounted to 39.2 µM in the assay on OVCAR-3 ovarian and 41.9 µM with SK-OV-3 ovarian.

On to `COC(=O)/C(=N\NC(N)=O)C(C(=O)C(=O)Nc1ccccc1OC)c1nc2ccc([N+](=O)[O-])cc2[nH]c1=O` (stereo not given), for which the TGI in the assay on SNB-19 CNS, with OVCAR-5 ovarian, in the assay on HOP-62 NSCLC, with MDA-MB-231 breast, in the assay with SR leukemia and in the assay on UO-31 renal was over 100 µM throughout. Further, the TGI in the assay with EKVX NSCLC, in the assay with MDA-MB-435, with SF-539 CNS, in the assay on ACHN renal, in the assay with RXF 393 renal and in the assay on RPMI-8226 leukemia was over 100 µM each time. For the same molecule, the TGI with MDA-N, in the assay with MCF7 breast, in the assay on CCRF-CEM leukemia, in the assay with NCI-H460 lung, with OVCAR-4 ovarian and with HCT-116 colon was over 100 µM throughout. The TGI with OVCAR-3 ovarian and in the assay on SK-OV-3 ovarian was over 100 µM throughout.

As for `COc1ccc(CC2C3=C(CCN2C(=O)C2CCC2)CC2(CC3)OCCO2)cc1O` (stereo not given), the TGI is over 100 µM with SNB-19 CNS; over 100 µM in the assay with OVCAR-5 ovarian; over 100 µM in the assay with HOP-62 NSCLC; over 100 µM in the assay with MDA-MB-231 breast; over 100 µM in the assay on SR leukemia; 1.49 µM in the assay with UO-31 renal. The TGI with EKVX NSCLC was over 100 µM; with MDA-MB-435 it was 20 µM; in the assay on SF-539 CNS, 75.9 µM; in the assay with ACHN renal, over 100 µM; in the assay with RXF 393 renal, 37.5 µM; with RPMI-8226 leukemia, over 100 µM. For the same molecule, the TGI in the assay on MDA-N was 31.6 µM; in the assay on MCF7 breast, over 100 µM; with CCRF-CEM leukemia, over 100 µM; in the assay on NCI-H460 lung, over 100 µM; in the assay with OVCAR-4 ovarian it was over 100 µM; in the assay with HCT-116 colon, over 100 µM. For the same molecule, the TGI with OVCAR-3 ovarian was 35.4 µM; with SK-OV-3 ovarian, 88.1 µM.

For the molecule `CC(=O)Nc1ccc(NS(=O)(=O)c2ccc3nc(C)n(NS(=O)(=O)c4ccc(NC(C)=O)cc4)c(=O)c3c2)cc1`, the TGI in the assay with SNB-19 CNS, in the assay on OVCAR-5 ovarian, in the assay on HOP-62 NSCLC, in the assay with MDA-MB-231 breast, with SR leukemia and with UO-31 renal was over 100 µM each time. Moreover, the TGI in the assay with EKVX NSCLC, in the assay with MDA-MB-435, with SF-539 CNS, in the assay with ACHN renal, in the assay with RXF 393 renal and with RPMI-8226 leukemia was over 100 µM in each case. Besides, the TGI with MDA-N, in the assay with MCF7 breast, with CCRF-CEM leukemia, with NCI-H460 lung, in the assay on OVCAR-4 ovarian and in the assay with HCT-116 colon was over 100 µM in each case. In addition, the TGI with OVCAR-3 ovarian and in the assay on SK-OV-3 ovarian was over 100 µM each time.
